“Also recorded” adds a separate entry of the source.
How the values were obtained:
femur trabecular bone = assay: micro CT evaluation of pharmacological function of 5-FAM-ZOL in vitamin D deficient rats; format: in vivo; conditions: vitamin D deficient (VitD (−)) rats; FIG. 13
Method: The pharmacological function of 5-FAM-ZOL was examined in vitamin D deficient (VitD (−)) rats (n=3 in each group). […] Bars are 1.0 mm. *: p<0.05 by Student's t-test.
This study determines the anti-resorptive function of FL-BP in vivo, as compared to ZOL. Female B6 mice were injected with 50 μM ZOL (n=6), 50 μM FL-BP (n=6) or 0.9% NaCl vehicle solution (control: n=6) via tail vein. Three weeks later, mice were euthanized and femur and L4/L5 were harvested. After fixed in 10% buffered formalin, bone samples were subjected to micro CT analysis. The anti-resorptive function were quantitatively established by the trabecular bone three-dimensional morphometry (e.g., BV/TV, Tb.N, Tb.Th, TbSp). FL-BPs with minimal or no pharmacological BP function are used.

mouse cranial bone = assay: cranial bone displacement: AF647-ZOL pre-adsorbed via IV, FAM-ZOL sub-periosteal injection; format: in vivo; conditions: for signal of pre-adsorbed AF647-ZOL at the FAM-ZOL injection site: AF647-ZOL 100 μl of 50 μM IV 6 days before, increasing dose of FAM-ZOL; for FAM signal on the cranial bone at the injection site: sub-periosteal 10 μl of 0, 1, 10 or 50 μM
Method: FIG. 12A to FIG. 12C show the displacement and replacement of AF647-ZOL and 5-FAM-ZOL. FIG. 12A are fluorescent images of cranial bone. AF647-ZOL (50 μM) was pre-adsorbed on cranial bone via IV injection. 5-FAM-ZOL at the indicated doses was directly injected to the sub-periosteal space. […] The first bars of each set are for AF647-ZOL and the second bars of each set are for 5-FAM-ZOL. *, P<0.05 vs Veh by Dunnett's test.
Mice were pre-treated by 100 μl of 50 μM AF647-ZOL retro-orbital IV injection. Six days later, mice received sub-periosteal injection to cranial bone with 10 μl of 0 μM, 1 μM, 10 μM, or 50 μM FAM-ZOL. The cranial bone was harvested and soft tissues were removed. The fluorescent signals of AF647 and FAM were measured by standardized fluorescent biophotonics. The cranial bones were then prepared for cryosection. Cross-sections were made by the tape method and evaluated by confocal laser scanning microscopy.

[1] = hydroxyapatite (HAP) binding affinity, relative retention times normalized to RIS; conditions: FIG. 7
Method: FIG. 7 is a bar graph showing hydroxyapatite (HAP) binding affinity of Zoledronate (ZOL), ROX-RIS, 5-FAM-ZOL, and AF647-ZOL. Relative retention times were normalized to RIS.
Hydroxyapatite assays indicate that the FL-BPs generally retain substantial affinity for bone mineral that reflect the affinity of the BP component and to a lesser extent, the affinity of the conjugated fluorophore. Hydroxyapatite (Macro-Prep® Ceramic hydroxyapatite Type II […]) was obtained from Bio-Rad Laboratories, Inc. Hercules, Calif. Accurately weighed hydroxyapatite powder (1.4-1.6 mg) was suspended in a 4 mL clear vial containing the appropriate volume of assay buffer (0.05% (wt/vol) Tween20, 10 μM EDTA and 100 mM HEPES pH=7.4) for 3 hours. Hydroxyapatite was then incubated with increasing amounts of FAM-BP and ROX-BP (0, 25, 50, 100, 200, and 300 μM). Samples were gently shaken for 3 hours at 37° C. in appropriate volume of assay buffer (0.05% (wt/vol) Tween20, 10 μM EDTA and 100 mM HEPES pH=7.4). Subsequent to the equilibrium period, the vials were centrifuged at 10,000 rpm for 5 minutes to separate the solids and the supernatant. 0.3 mL of the supernatant was collected and the equilibrium solution concentration is measured by using Shimadzu UV-VIS spectrometer. For the calibration series, FL-BP probe standards were prepared by serial dilution from the stock solution with the same isotherm buffer to give the range from 0 to 400 μM. Calibration curves were constructed using standard solutions of the target FL-BPs. Fluorescent emission can also be used to calculate the binding parameters. Nonspecific binding was measured with a similar procedure in the absence of hydroxyapatite as control. Binding parameters (Kd and Bmax, represent the equilibrium dissociate constant and maximum number of binding sites, respectively) were calculated using the PRISM program (Graphpad, USA). The binding parameters of each compound was measured in 5 independent experiments. […]

mouse maxilla = assay: preliminary study: fluorescent imaging of mouse maxilla after 5-FAM-ZOL IV or ROX-RIS intraoral injection; format: in vivo; conditions: single IV 200 μl of 350 μM; 3 weeks after
Method: In a preliminary study female C57B16/J (B6) mice (8 weeks old) received either a single IV injection via tail vein of 200 μl of 350 μM 5-FAM-ZOL (5-FAM-ZOL, #BV111001, BioVinc LLC, Culver City, Calif.) or a single intraoral injection of 25 μl of 50 μM ROX-RIS (5(6)-ROX-RIS, #BV150101, BioVinc LLC, CA) to gingival/palatal tissue at maxillary left first molar (white arrow in FIG. 11). […], mice were euthanized 3 weeks after the IV injection of 5-FAM-ZOL or 2 days after the intraoral injection of ROX-RIS. Skulls (containing maxilla) were harvested and standardized fluorescent biophotonics image was obtained using an excitation wavelength of 460 nm and the 515 nm filter (LAS3000, FUJIFILM Corp).

O=C(NCC(O)C[n+]1ccn(CC(O)(P(=O)(O)O)P(=O)(O)O)c1)c1ccc(-c2c3ccc(=O)cc-3oc3cc(O)ccc23)c(C(=O)O)c1 (stereo not drawn) [5-FAM-ZOL]
pharmacological (anti-resorptive) function (femur trabecular bone): exhibited pharmacological function; also recorded: effectively blocked catabolic bone remodeling | signal of pre-adsorbed AF647-ZOL at the FAM-ZOL injection site (mouse cranial bone): decreased | signal of pre-adsorbed AF647-ZOL at the FAM-ZOL injection site (mouse cranial bone; listed as FAM-ZOL): gradual decrease | AF647-ZOL signal on the external versus internal bone surface after FAM-ZOL injection (mouse cranial bone; cranial bone cryo-cross sections): disproportionately reduced | FAM signal on the cranial bone at the injection site (mouse cranial bone): increased with increasing injection dose | FAM signal on the cranial bone at the injection site (mouse cranial bone; listed as FAM-ZOL): dose dependent increase | location of FAM-ZOL signal in cranial bone (mouse cranial bone; sub-periosteal injection, cryo-cross sections): primarily on the external bone surface | influence of the fluorophore on hydroxyapatite affinity [1]: small reduction | fluorescent signal in maxilla and zygomatic arch (mouse maxilla): Strong and relatively uniform green fluorescent signal

From patent US11400104B2, “Skeletal removal of bisphosphonates” (The Regents of the University of California, priority 2016, dated 2022)
